Measured values from US20080132710A1, “ATRASENTAN HYDROCHLORIDE CRYSTALLINE FORM 2” (ABBOTT LABORATORIES, priority 2006, published 2008).
Counter-ions that a name gives are not always drawn.

Assay: Crystalline form of atrasentan hydrochloride found in solvents over time (conversion to Form 2) at 25° C.
Format: physicochemical
Design: key: 1, 2 and 3 mean Atrasentan Hydrochloride Crystalline Forms 1, 2 and 3, respectively.; 1, 2 and 3 mean Atrasentan Hydrochloride Crystalline Forms 1, 2 and 3, respectively.; 1, 2 and 3 mean Atrasentan Hydrochloride Crystalline Forms 1, 2 and 3, respectively
Method: Examples of representative solvents that are useful for converting a particular crystalline form of atrasentan hydrochloride to Atrasentan Hydrochloride Crystalline Form 2 having substantial crystalline purity at 25° C. are shown in TABLE 2.

With `CCCCN(CCCC)C(=O)CN1C[C@H](c2ccc3c(c2)OCO3)[C@@H](C(=O)O)[C@@H]1c1ccc(OC)cc1` [atrasentan hydrochloride, (2R,3R,4S)-(+)-2-(4-methoxyphenyl)-4-(1,3-benzodioxol-5-yl)-1-(N,N-di(n-butyl)aminocarbonylmethyl)pyrrolidine-3-carboxylic acid] the crystalline form present (0.1M HCl, week 1) was 1, the crystalline form present (0.1M HCl, week 2) was 1 and the crystalline form present (0.1M HCl, week 4) was 1. The crystalline form present (0.1M HCl, week 9) was 2, the crystalline form present (0.1M HCl, week 16) was 2 and the crystalline form present (IPA (isopropyl alcohol), week 1) was 1. For the same compound, the crystalline form present (IPA (isopropyl alcohol), week 2) was 1, the crystalline form present (IPA (isopropyl alcohol), week 4) was 2 and the crystalline form present (IPA (isopropyl alcohol), week 9) was 2. For the same compound, the crystalline form present (IPA (isopropyl alcohol), week 16) was 2, the crystalline form present (PEG 400 (polyethylene glycol), week 1) was 1 and the crystalline form present (PEG 400 (polyethylene glycol), week 2) was 1. The crystalline form present (PEG 400 (polyethylene glycol), week 4) was 1, the crystalline form present (PEG 400 (polyethylene glycol), week 9) was 1 and the crystalline form present (PEG 400 (polyethylene glycol), week 16) was 2. The crystalline form present (acetone, week 1) was 2, the crystalline form present (acetone, week 2) was 2 and the crystalline form present (acetone, week 4) was 2. For the same compound, the crystalline form present (acetone, week 9) was 2, the crystalline form present (acetone, week 16) was 2 and the crystalline form present (ethanol, week 1) was 2. It also gave a crystalline form present (ethanol, week 2) of 2, a crystalline form present (ethanol, week 4) of 2 and a crystalline form present (ethanol, week 9) of 2. The crystalline form present (ethanol, week 16) was 2, the crystalline form present (ethyl acetate, week 1) was 1 and the crystalline form present (ethyl acetate, week 2) was 1. The crystalline form present (ethyl acetate, week 4) was 1, the crystalline form present (ethyl acetate, week 9) was 2 and the crystalline form present (ethyl acetate, week 16) was 2. For the same compound, the crystalline form present (nitromethane, week 1) was 3, the crystalline form present (nitromethane, week 2) was 3 and the crystalline form present (nitromethane, week 4) was 3. It also gave a crystalline form present (nitromethane, week 9) of 3 and a crystalline form present (nitromethane, week 16) of 2.
